According to US20170216240A1, “METHODS FOR MODULATING IKS CHANNEL ACTIVITY” (UNIVERSITY OF MIAMI, priority 2014, published 2017):

Target: Kv7.1 (Homo sapiens, UniProt P51787)
Test: G(V) shift of Kv7.1 expressed in Xenopus laevis oocytes, two-electrode voltage-clamp
Format: cell-based
Conditions: Kv7.1, 70 μM, pH 7.4
Description: cDNAs encoding human Kv7.1 (GEnBAnk Acc. No. NM_000218) and KCNE1 (NM_000219) were subcloned into the expression vectors pGEM or pXOOM, containing the 5′- and 3′-untranslated regions for Xenopus laevis β-globin as well as a poly-A segment (Jespersen et al., Biotechniques 32, 536-538, 540 (2002)). The truncated KCNE1 construct KCNE1ΔC was constructed by introducing a Stop codon at position 67 using Quikchange site-directed mutagenesis kit (Qiagen). The construct was fully sequenced to ensure proper mutation and absence of unwanted mutations (sequencing by Genewiz). The concatemers E1-Kv7.1-Kv7.1 and E1-Kv7.1 were provided by Dr. R. S. Kass at Columbia University, and can be prepared as described in Chan et al. Journal of General Physiology 132(2), 135-144, (2012)). The E1-Kv7.1 construct was made by linking the C-terminus of KCNE1 to the N-terminus of KCNQ1. The E1-Kv7.1-Kv7.1 construct was made by digesting the E1-Kv7.1 and a Kv7.1-Kv7.1 dimer with Xho1 and inserting the 2-kb fragment from the Kv7.1-Kv7.1 dimer digest into the cut KCNE1-Kv7.1 construct. The DNA encoding E1-Kv7.1-Kv7.1 and E1-Kv7.1 were in the pGEM vector and contained mutations to make the constructs suitable for voltage-clamp fluorometry recordings (Wang et al., J Biol Chem 273, 34069-34074 (1998)). The original KCNE1 and Kv7.1 sequences were therefore removed, one at a time, from the pGEM vector using different restriction enzymes (New England Biolabs). Sequences were separated using gel electrophoresis and harvested using Qiagen gel extraction kit. Corresponding wild type sequences were ligated into the construct using T4 Ligase (New England Biolabs). To ensure correct sequence the constructs were sequenced (Genewiz) and tested with different restriction enzymes in combination with gel electrophoresis to measure length and conformation of the gene. cRNA for injection of all constructs was prepared from linearized DNA using the T7 mMessage mMachine transcription kit (Ambion) according to the manufactures instructions. RNA quality was checked by gel electrophoresis, and RNA concentrations were quantified by UV spectroscopy.
Xenopus laevis oocytes were isolated and maintained (Bentzen, B. H. et al. Neuropharmacology 51, 1068-1077 (2006)). Approximately 50 nl cRNA (50 ng Kv7.1, KCNE1-Kv7.1-Kv7.1 or KCNE1-Kv7.1 alternatively 25 ng Kv7.1 together with 8 ng KCNE1 or KCNE1ΔC) was injected into each oocyte using a Nanojet microinjector (Drummond). Electrophysiological experiments were made 2-5 days after injection. Currents were measured at room temperature with the two-electrode voltage-clamp technique (CA-1B Dagan amplifier). Currents were sampled at 1-3.3 kHz, filtered at 500 Hz, and not leakage corrected. […] A control solution containing (in mM): 88 NaCl, 1 KCl, 15 HEPES, 0.4 CaCl2, and 0.8 MgCl2 was used. NaOH was added to adjust pH to 7.4, yielding a final sodium concentration of about 100 mM. The holding voltage was generally set to −80 mV. Activation curves were generally elicited by stepping to test voltages between −110 and +60 mV (2-4 s durations and 10 mV increments) followed by a tail voltage of −30 mV. For recordings of Kv7.1 at pH 9 and pH 10, the holding voltage was set to more negative voltages because the largest DHA-induced shifts induced channel opening already at −80 mV. […] Therefore, in arachidonyl amine experiments a brief hyperpolarizing pulse of 50 ms to −120 mV was introduced between the test voltage and the tail voltage to relief the channels from inactivation.
Test compounds were dissolved in 99.5% ethanol to a concentration of 100 mM and stored at −20° C. (Börjesson et al., Biophys J 95, 2242-2253 (2008); Börjesson et al., Biophys J 98, 396-403 (2010)). Shortly before experiments, test compounds were diluted in control solution to the desired test concentration. Pure control solution was added to the bath using a gravity-driven perfusion system. […]

SMILES: CCCCC/C=C\C/C=C\C/C=C\C/C=C\CCCC(=O)NCCS(=O)(=O)O [N-AT, N-arachidonoyl taurine]
- ΔV1/2 ± SEM (G(V) shift) (listed as N-arachidonoyl taurine): about −30 mV
- ΔV1/2 ± SEM (G(V) shift) (listed as N—AT): −26.2 ± 2.7 mV
